“Also recorded” adds a separate entry of the source. Read-outs that look alike come from different tables or passages of the source.
Experiments:
[1] = system: muscle-derived stromal cells (MDSC); assay: MDSC migration through a transwell membrane; format: cell-based, human
Method: Migration of 1×10^4 MDSC through an 8 μm pore transwell membrane over 36 hours, in response to fracture supernatant with the addition of AbTNF-α, AbIL-6 and AbIL-1β. The IgG^1 immunoglobulin was used as the antibody control. B: Migration in response to rhTNF-α, rhIL-6 and rhIL-1β in human serum-containing media. Results represent change in cell number, expressed as a percentage of the supernatant, or media only control. Each experiment was performed 3 times (n=3) using 3 fracture supernatants (in A). Results represent mean of 3 experiments ±SEM. *: P<0.05; **: P<0.01; ***: P<0.001; 1-way ANOVA with Bonferroni's multiple comparison test.
MDSC must be recruited to the fracture site from adjacent muscle. Next we assessed the efficacy of the pro-inflammatory cytokines in attracting MDSC in vitro using a transwell assay. 1×10^4 MDSC were seeded onto a 8 μm transwell membrane in serum free media. Next day, the transwell membrane was added to a well containing 10% human serum-containing media +IL-1β, IL6 and TNFα at the end concentrations shown. At 24 hrs the membrane was cleared of any cells on the seeded side, fixed and stained. IL-1β appeared not promote MDSC chemotaxis.
500 μl serum free media was added to each well of a 24 well plate. 8 μm pore transwell membranes (VWR International Ltd) were then added to the wells. 1×10^4 MDSC in serum free media were added to the upper chamber of each transwell membrane. At 12 hours the serum-free media was replaced with test or control media or supernatant and incubated at 37° C. for 36 hours. The upper chambers were then cleared of cells and cell debris using a cotton bud, in sweeping motions. The membrane was then washed and fixed using 10% neutral buffered formalin for 1 hour. After washing, the membrane was then added to a 1% crystal violet solution for 1 hour. After further washing, the membranes were viewed under light microscopy at 20 times magnification, using an Olympus CKX41 microscope with a QICAM camera, (QIMAGING, GT vision LLC). The number of cells present on the underside of the transwell membrane in any random field was counted 3 times and the mean calculated. Cell migration was calculated against the supernatant or human serum-containing (control) media and the number expressed as a percentage relative to the control media.

[2] = cited from earlier work
[3] = system: murine open tibial fracture; assay: Murine open tibial fracture model, periosteally stripped (histology, CT scans); format: in vivo, C57BI/6 mice
osteoclast = conditions: TNF-α at 1 ng/ml; cited from earlier work
[4] = system: muscle-derived stromal cells (MDSC); assay: MDSC proliferation (CellTiter-Glo luminescent cell viability assay); format: cell-based, human
Method: CellTiter-Glo® luminescent cell viability assay for MDSC in culture with A: TNF-α, B: IL-6 and C: IL-1β. 2.5×10^3 cells were cultured in triplicate for 1, 3 and 5 days in human serum-containing media ± recombinant human cytokine at the concentration indicated. The number of viaBIe cells in culture was determined using the assay, where luminescent signal is directly proportional to the concentration of ATP from viaBIe cells.
In order to test this hypothesis, proliferation of MDSC in human serum-containing media with rhTNF-α, rhIL-6 and rhIL-1β was tested using the CellTiter-Glo® luminescent cell viability assay was used (Promega Corp., Madison, Wis.).
This method assays the number of viaBIe cells in culture, by measuring adenosine triphosphate (ATP), where the luminescent signal is directly proportional to the number of ATP present.

fractured ribs = conditions: daily intraperitoneal 400 μg/kg body weight per day after fracture, rats; cited from earlier work
[5] = system: muscle-derived stromal cells (MDSC); assay: Bone nodule formation by MDSC (alizarin red staining); format: cell-based, human
Excerpt: FIG. 26 TNF-α and IL-6 promote osteogenic differentiation of MDSC A-D: ALP quantification assays after culture of 1×10^4 MDSC for 7 days in a 96-well plate in triplicate with: A: fracture supernatant, ±antibody neutralization of BMPs 2/4 7 and to TGF-β. The immunoglobulin isotype controls used included IgG^1 for AbBMP-2/4 and AbTGF-β, and IgG^2B for Ab-BMP-7. B: human serum containing culture medium with the addition of recombinant human BMPs and TGF-β. C: fracture supernatant±antibody neutralization of TNF-α, IL-6 and IL-1β. The IgG^1 immunoglobulin was used as the antibody isotype control. D: human serum-containing culture medium with the addition of recombinant human TNF-α, IL-6 and IL-1β. E: Alizarin red staining for bone nodule formation after culture of 1×10^4 MDSC in human serum-containing media. Recombinant human cytokine at the optimal dose indicated by D, was added for the first 3 days ONLY, and the cells were subsequently cultured in media for 32 days. A representative image from a single well is shown. All experiments were performed 3 times, in triplicate (n=3) using MDSC from 3 donors. Values for A-D represent a mean from 3 experiments ±SEM, using supernatant from 3 donors in A and C. *: P<0.05; **: P<0.01; ***: P<0.001; 1-way ANOVA with Bonferroni's multiple comparison test in A and C and with Dunnett's multiple comparison test against the media only control in B and D.
1×10^4 MDSC were added to wells of a 24-well plate in triplicate. The cells were cultured for 35-40 days in osteogenic media (DMEM with 10% fetal calf serum and 1% penicillin/streptomycin also containing 100 nM dexamethasone (SIGMA), 1 mM β-glycerol phosphate and […] ascorbic acid), supernatant or media containing recombinant cytokines (with one media change per week) the cells were fixed with 2 ml 10% neutral buffered formalin at room temperature for 15 min. The plate was then washed twice with excess PBS. 1 ml filtered 40 mM alizarin red solution (pH 4.1) was added to each well and agitated at room temperature for 30 minutes. The excess dye was then aspirated and the plate washed four times in distilled water with gentle agitation. Finally, the plates were turned upside-down on paper to dry. Bone nodules appeared red under light microscopy. Images were taken at 20 times magnification and performed as above.

TNFα
chemotaxis / migration of MDSC ([1]; Example 1, transwell, 10% human serum-containing media, 24 hrs (FIG. 14)): promote chemotaxis of MDSC; also recorded: promoted migration of MDSC | migration of MDSC ([1]; Example 3, 8 μm transwell, 36 hours, recombinant cytokine in human serum-containing media (FIG. 27B)): chemo attractant for MDSC | optimal concentration for MDSC migration ([1]; Example 3, transwell, 36 hours (FIG. 27B)): 1 pg/mL | plasma half life ([2]; in the presence of soluble TNFα receptors): up to 6 hours | plasma half life ([2]; in vivo): less than 1 hour | optimal dose for fracture healing ([3]; 20 μl in PBS at fracture site, histology day 14 (FIG. 18)): 50 ng/mL | optimal dose range for fracture healing ([3]; 20 μl in PBS, 1 ng/ml equivalent to 1 ng/kg, histology day 14 (FIG. 18)): around 50 ng/kg | healing of tibial fractures by CT scans ([3]; 28 days post injury, local administration at fracture site (TNFα 50 ng/kg and HMGB1 at time of fracture and 24 hr later) (FIG. 19, 30)): improved healing | fracture healing ([3]; TNFα 5 ng/ml at fracture site (FIG. 18)): less pronounced effect | fracture healing ([3]; TNFα 500 ng/ml (500 ng/kg) at fracture site, versus PBS vehicle (FIG. 18)): inhibitory | fracture healing ([3]; TNFα 500 ng/ml (500 ng/kg) at fracture site, versus PBS vehicle (FIG. 18), listed as rhTNFα): inhibits fracture healing | fracture healing compared to control C57BI/6 mice ([3]; exogenous addition at fracture site, histology day 14, log dose range 5-500 ng/ml (FIG. 18)): accelerated fracture healing | decrease of osteoclast number (osteoclast): > 90% | proliferation of MDSC ([4]; Example 1 discussion, TNFα 1 ng/ml): led to proliferation of MDSC | MDSC proliferation ([4]; Example 3, 1, 3 and 5 days in human serum-containing media ± recombinant human cytokine (FIG. 28)): do not promote MDSC proliferation | fracture healing (fractured ribs): significantly inhibited | bone nodule formation by MDSC ([5]; Example 1, cytokine at 1 ng/ml, 5 weeks (FIG. 13)): promoted; also recorded: pronounced bone nodule formation | bone nodule formation by MDSC ([5]; Example 3, recombinant cytokine at optimal dose for first 3 days, human serum-containing media (FIG. 26E)): stimulated vigorous nodule formation

Source: patent US20120213826A1, “Use of Pro-Inflammatory Compounds for Promoting Bone Formation” (Imperial Innovations Limited, priority 2009, published 2012)
